In one assay the test system is FL83B mouse hepatocytes. Description: LC and cholecalciferol treatment of hepatocytes (GCLC-KD, VDR-KD). Format: cell-based. The procedure:
(§1) Cell culture and treatment: FL83B mouse hepatocytes (ATCC®, Manassas, Va.) were cultured and maintained in F-12K complete medium. Mouse C2C12 myoblasts were cultured at 37° C. in an atmosphere of 5% CO2 in growth medium (GM) consisting of Dulbecco's modified Eagle's medium (DMEM) supplemented with heat-inactivated 10% fetal bovine serum and antibiotics (penicillin and streptomycin). […] The control siRNA, a scrambled nonspecific RNA duplex that shares no sequence homology with any of the genes, was used as a negative control.
(§2) Cells were transiently transfected with 0-100 nM siRNA complex using Lipofectamine™2000 transfection reagent (Invitrogen, Carlsbad, Calif.). […] TNF-α (0-250 μg/mL) was exposed for 6 h to differentiated myotubes.
(§3) Analysis of mRNA expression using quantitative polymerase chain reaction: Total RNA was extracted from cells or tissue using the TRIzol reagent (Life Technologies) following the manufacturer's instructions. The quality and quantity of the extracted RNA were determined on a NanoDrop spectrophotometer (Thermo Scientific). First-strand complementary DNA (cDNA) synthesis was performed using a commercially available High Capacity RNA-To-cDNA kit (Life Technologies) in a final reaction volume of 20 μL. Amplification of cDNA was performed on a 7900HT Real Time polymerase chain reaction (PCR) system (Applied Biosystems). PCR conditions were 2 min at 50° C., 10 min at 95° C., 40 cycles of 95° C. for 15 s, and then 60° C. for 60 s. Glyceraldehyde-3-phosphate dehydrogenase (GAPDH) was used as a housekeeping gene to normalize threshold cycle (CT) values.
(§4) Levels of GSH in plasma, tissues, and cultured cells were determined using HPLC. This assay determines total GSH status. Cell viability was determined using the Alamar Blue method (Alamar Biosciences, Sacramento, Calif.). Oxidative stress was assessed by the quantification of protein carbonyls and MDA using Protein Carbonyl Colorimetric and TBARS Assay Kits, respectively (Cayman Chemical, Ann Arbor, Mich.). Measurements of HbA1c, Complete Blood Count, glucose, and calcium were done at the clinical chemistry laboratories of LSUHSC-Shreveport. Due to limited amount of blood collected from each mouse, we borrowed diluents from the clinical laboratory and diluted the blood before taking it to the clinical laboratory, which reduced the amount of blood required for clinical tests. All chemicals were purchased from Sigma Chemical Co. (St. Louis, Mo.) unless otherwise mentioned.

Another assay has as its system C2C12 myotubes. Description: LC, TNF-α and 1,25(OH)2VD treatment of myotubes (GCLC-KD, PGC-1α KD). It is filed as cell-based, mouse. How it is done:
as §1, §2, §3, §4

Assay [1] deals with mice maintained on a VD-deficient HFD. The assay can be described thus: Supplementation of mice on VD-deficient HFD: blood biomarkers. Conditions: VD 67 IU/kg BW, vs OO (vehicle) control. Format: in vivo, mouse. How it is done: Effect of supplementation with VD along with LC on plasma levels of GSH, 25(OH)VD, and IR, and on GSH and VD regulatory genes in liver and on GSH and glucose metabolism genes in muscle: Beginning at 5 weeks of age, male C57BL/6J mice were fed and maintained on a VD-deficient HFD and water ad libitum for 16 weeks. Mice were gavaged daily for the last 8 weeks with saline, olive oil (OO), LC (5 mg/kg BW), VD (67 IU/kg BW), or LC+VD to investigate whether co-supplementation with GSH precursor has a better effect on blood levels of 25(OH)VD compared with levels achieved using VD alone. VD was dissolved in OO and one group of mice was also gavaged with OO (vehicle) alone.
Animal studies. Male C57BL/6J mice (5 weeks old, 20-24 g) were purchased from The Jackson Laboratory and acclimatized in the institutional animal house for 1 week. Mice were divided into various groups by computer-generated randomization and then housed and labeled in individual cages. They were fasted overnight and then weighed. Blood glucose was assessed by tail prick using an Accu-Chek glucometer (Boehringer Mannheim Corp., Indianapolis, Ind.). BW and blood glucose were monitored weekly. Control animals were fed a normal diet (lower in fat), while animals in the HFD group were fed HFD for 16 weeks. For studies with VD-deficient animals, the mice were maintained on a VD-deficient HFD for 16 weeks.
In addition, two groups of mice maintained on the VD-deficient HFD were also simultaneously supplemented by oral gavage with either water or the same dose of the vehicle used for dissolving cholecalciferol (OO) (FIG. 5). The animals were maintained under standard housing conditions at 22° C. 2° C. with 12/12-h light/dark cycles. Normal diet, HFD, and VD-deficient HFD were purchased from The Jackson Laboratory. The amount of food intake was monitored at 12 and 16 weeks into the treatment period to assess consumption. At the end of 16 weeks, the animals were fasted overnight and then euthanized for analysis by exposure to isoflurane (Webster Veterinary Supply, Inc., Devens, Mass.). Blood was collected via heart puncture with a 19^1/2-gauge needle into heparinized Vacutainer tubes. Plasma was isolated after centrifuging the blood in a 4° C. centrifuge at 3000 rpm for 10 min. The livers were perfused with cold saline to free them of residual blood. Liver and gastrocnemius muscle were collected immediately, weighed, quickly diced, and frozen in liquid nitrogen at −80° C.
Dose justification for LC and vitamin D: While lc can be taken as a supplement, it is also formed in the body from methionine. An adult ingests about 500 mg LC from dietary sources, assuming that an average protein intake is 90 g/day and that LC is about 0.6% of total protein. Similarly, taking into account daily dietary intake and diet composition, mice consume 3-5 mg LC/kg BW. The LC/methionine content of protein varies with the source of the protein. The LC dose used in our studies, 5 mg/kg BW, is theoretically a supplementation onefold to twofold that of the LC ordinarily consumed by the mice, which could be considered both modest and safe. […]
25(OH)VD, 1,25(OH)2VD, VDBP, GSH, TNF-α, PTH, insulin, glucose, protein carbonyl, and MDA assays: Plasma levels of 25(OH) vitamin D were determined using an ELISA kit (Calbiotech, Spring Valley, Calif.) and 1,25(OH)2 vitamin D using another ELISA kit (My BioSource, San Diego, Calif.). Plasma VDBP quantification was carried out using a kit purchased from ALPCO Diagnostics (Salem, N.H.). […]

Setting [2] is: LC alone, compared with control VDR-KD cells.
[3] abbreviates: oral gavage 8 weeks, LC 5 mg/kg BW.

With `N[C@@H](CS)C(=O)O` [LC, l-cysteine], in the assay on FL83B mouse hepatocytes (setting [2]), the CYP27A1 gene upregulation result was “not” and the VDBP gene expression result is “upregulation”. Further, the “oxidation of both proteins and lipids” value with FL83B mouse hepatocytes (LC, GSH-normal and GSH-deficient hepatocytes) was “reduced”. Besides, in the assay with C2C12 myotubes (LC 300 μM, 6 h), the GSH levels entry was “increases”. Also, the TNF-α levels result in the assay on C2C12 myotubes (LC 300 μM, 6 h, GCLC-normal and GCLC-KD myotubes) is listed as “decrease”.

In the case of `C=C1CC[C@H](O)C/C1=C/C=C1\CCC[C@]2(C)[C@@H]([C@H](C)CCCC(C)C)CC[C@@H]12` [VD, cholecalciferol], the “effect on VD regulatory genes (mRNA)” value in the assay on FL83B mouse hepatocytes (cholecalciferol 10 nM, 22 h) was “stimulatory effect”. In assay [1] (setting [3]), the “IR (HOMA-IR) in blood” value was “did not show effect”, the “blood HbA1c” value was “did not show effect” and the “blood level of TNF-α” value is “did not show effect”. Further, the “blood level of VDBP” value in assay [1] (oral gavage 8 weeks) was “did not show effect”. The “blood level of GSH” value in assay [1] (oral gavage last 8 weeks of 16 weeks VD-deficient HFD, LC 5 mg/kg BW) is given as “did not show effect”.

Regarding `C=C1/C(=C\C=C2/CCC[C@]3(C)[C@@H]([C@H](C)CCCC(C)(C)O)CC[C@@H]23)C[C@@H](O)C[C@@H]1O` [1,25(OH)2VD, 1alpha,25-dihydroxyvitamin D3], the “upregulation of NRF2 and GLUT-4” value in the assay with C2C12 myotubes (PGC-1α KD myotubes) is “absent”.

For the compound TNF-α, in the assay on C2C12 myotubes (exogenous TNF-α, 6 h), the VDR/PGC-1α/GLUT-4 gene expression result is listed as “downregulates”.

Values taken from patent US20240122946A9, “METHODS AND COMPOSITIONS FOR TREATING 25-HYDROXYVITAMIN D DEFICIENCY” (Board of Supervisors of Louisiana State University and …, priority 2019, published 2024).
